Paper PMC6315694, “Synthesis of Pseudellone Analogs and Characterization as Novel T-type Calcium Channel Blockers” (Marine Drugs, 2018)

Assays:
human CaV3.1 = biological target: T1, human CaV3.1 (Homo sapiens, UniProt O43497); experiment: T-type calcium channel window current FLIPR assay, CaV3.1; format: cell-based
T1 construct: expressed in transfected cells; host or cells: HEK 293T, transient transfection (FuGENE HD)
Method: (§1) The human embryonic kidney 293 (HEK 293) cell lines (from Emmanuel Bourinet, Montpellier, France) stably expressing CaV3.2 or CaV3.3 were cultured under 5% carbon dioxide at 37 °C in Dulbecco’s Modified Eagle Medium (DMEM) Glutamax (Gibco, Life Technologies, Carlsbad, CA, USA) supplemented with 10% (v/v) fetal bovine serum (FBS), 100 U/mL penicillin, 100 μg/mL streptomycin (Gibco, Life Technologies), and 750 μg/mL geneticin (G418) (Gibco, Life Technologies). The Chinese Hamster Ovary (CHO) cell lines (Emmanuel Bourinet, Montpellier, France) expressing CaV3.1 were cultured under 5% carbon dioxide at 37 °C in Alpha Minimum Essential Media (MEM) Glutamax (Gibco, Life Technologies), supplemented with 10% (v/v) fetal bovine serum (FBS) and 300 μg/mL geneticin (G418) (Gibco, Life Technologies). The human neuroblastoma SH-SY5 Y cells (Victor Diaz, Goettingen, Germany) were cultured under 5% carbon dioxide at 37 °C in RPMI 1640 antibiotic-free medium (Invitrogen, Carlsbad, CA, USA), supplemented with 15% FBS and 2 mM GlutaMAX™ (Invitrogen). D-PBS (Gibco, Life Technologies) was used to wash the cells, and 0.25% Trypsin-EDTA (Gibco, Life Technologies) was used to detach cells from the flask surface. They were split in a ratio of 1:5 (ideally 1000 cells/cm^2) when they reached 70%–80% confluence (every 2–3 days). Transiently transfected CaV3.1HEK293 T cells were used in FLIPR Assays. HEK 293 T cells were cultured under 5% carbon dioxide at 37 °C in DMEM supplemented with 10% (v/v) FBS. D-PBS was used to wash the cells, and 0.25% Trypsin-EDTA was used to detach cells from the flask surface. The cells were split and seeded at 6 million cells per T175 flask, to reach 70%–80% confluence after 24 h. The next day, 12 μg DNA of human CaV3.1 was incubated in 900 μL serum-free DMEM with 36 μL FuGENE HD transfection reagent (Promega Corporation, Madison, WI, US) (1:3 DNA/Fugene ratio) for 20 min, and then the mixture was added into the cell flask slowly, drop by drop. After the transfection, the cells were cultured under 5% carbon dioxide at 37 °C for 24 h and then moved to a 28 °C incubator.
HEK 293 cells stably expressing CaV3.2 or CaV3.3 were seeded into 384-well black wall clear bottom plates (Corning, Lowell, MA, USA) at a density of 30,000 cells per well. Transiently transfected CaV3.1HEK293 T cells were seeded into 384-well black wall clear bottom plates at a density of 60,000 cells per well. Once the cells reached 90%–95% confluence after 24 h, the media were removed from the wells and replaced with 20 μL of 10% calcium 4 dye (Molecular Devices, Sunnyvale, CA, USA) in HBSS-HEPES (containing 5 mM KCl, 10 mM HEPES, 140 mM NaCl, 10 mM glucose, and 0.5 mM CaCl2, pH 7.4) with 0.1% bovine serum albumin (BSA). The cells were incubated for 30 min at 37 °C in the presence of 5% carbon dioxide. Each well on the reagent plates for the first addition contained 15 μL different concentrations of compounds dissolved in HBSS-HEPES containing 0.1% BSA and <0.1% DMSO and was incubated for 20 min after loading. Positive and negative controls contained 15 μL of HBSS-HEPES (0.1% BSA) alone. The plates were placed in the FLIPR^TETRA (Molecular Devices, Sunnyvale, CA, USA) programmed to measure maximum fluorescence intensity following a second addition of the agonist 5 mM CaCl2. The data acquisition parameters were adjusted as follows: Baseline fluorescence of 1500–2000 arbitrary fluorescence units (AFU), emission wavelength of 515–575 nm, and excitation wavelength of 470–495 nm. HBSS-HEPES (0.1% BSA) was used in the second addition as a negative control. One fluorescence reading was taken before the second addition. Then the fluorescence readings were recorded every two seconds for 300 s. Raw fluorescence readings in the form of relative light units were converted to response over baseline using ScreenWorks® (Molecular Devices, version 3.2.0.14) software.
Data were plotted and analyzed using GraphPad Prism v7.0 (GraphPad Software Inc., San Diego, CA, USA).

[1] = biological target: recombinant hCaV3.3 channels (Homo sapiens, UniProt Q9P0X4); experiment: Whole-cell patch-clamp QPatch 16 X, CaV3.3; format: cell-based
Method: as §1
Whole-cell patch-clamp experiments were performed on an automated electrophysiology platform QPatch 16 X (Sophion Bioscience A/S, Ballerup, Denmark) in single-hole configuration using 16-channel planar patch chip QPlates (Sophion Bioscience A/S). The extracellular recording solution contained, in mM: TEACl 157, MgCl2 0.5, CaCl2 5, and HEPES 10; pH 7.4 adjusted with TEAOH; and osmolarity 320 mOsm. The intracellular pipette solution contained, in mM: CsF 140, EGTA 1, HEPES 10, and NaCl 10; pH 7.2 adjusted with CsOH; and osmolarity 325 mOsm. […]
Data were plotted and analyzed using GraphPad Prism v7.0 (GraphPad Software Inc., San Diego, CA, USA). […]

Chain of recombinant hCaV3.3 channels (Q9P0X4 whole entry): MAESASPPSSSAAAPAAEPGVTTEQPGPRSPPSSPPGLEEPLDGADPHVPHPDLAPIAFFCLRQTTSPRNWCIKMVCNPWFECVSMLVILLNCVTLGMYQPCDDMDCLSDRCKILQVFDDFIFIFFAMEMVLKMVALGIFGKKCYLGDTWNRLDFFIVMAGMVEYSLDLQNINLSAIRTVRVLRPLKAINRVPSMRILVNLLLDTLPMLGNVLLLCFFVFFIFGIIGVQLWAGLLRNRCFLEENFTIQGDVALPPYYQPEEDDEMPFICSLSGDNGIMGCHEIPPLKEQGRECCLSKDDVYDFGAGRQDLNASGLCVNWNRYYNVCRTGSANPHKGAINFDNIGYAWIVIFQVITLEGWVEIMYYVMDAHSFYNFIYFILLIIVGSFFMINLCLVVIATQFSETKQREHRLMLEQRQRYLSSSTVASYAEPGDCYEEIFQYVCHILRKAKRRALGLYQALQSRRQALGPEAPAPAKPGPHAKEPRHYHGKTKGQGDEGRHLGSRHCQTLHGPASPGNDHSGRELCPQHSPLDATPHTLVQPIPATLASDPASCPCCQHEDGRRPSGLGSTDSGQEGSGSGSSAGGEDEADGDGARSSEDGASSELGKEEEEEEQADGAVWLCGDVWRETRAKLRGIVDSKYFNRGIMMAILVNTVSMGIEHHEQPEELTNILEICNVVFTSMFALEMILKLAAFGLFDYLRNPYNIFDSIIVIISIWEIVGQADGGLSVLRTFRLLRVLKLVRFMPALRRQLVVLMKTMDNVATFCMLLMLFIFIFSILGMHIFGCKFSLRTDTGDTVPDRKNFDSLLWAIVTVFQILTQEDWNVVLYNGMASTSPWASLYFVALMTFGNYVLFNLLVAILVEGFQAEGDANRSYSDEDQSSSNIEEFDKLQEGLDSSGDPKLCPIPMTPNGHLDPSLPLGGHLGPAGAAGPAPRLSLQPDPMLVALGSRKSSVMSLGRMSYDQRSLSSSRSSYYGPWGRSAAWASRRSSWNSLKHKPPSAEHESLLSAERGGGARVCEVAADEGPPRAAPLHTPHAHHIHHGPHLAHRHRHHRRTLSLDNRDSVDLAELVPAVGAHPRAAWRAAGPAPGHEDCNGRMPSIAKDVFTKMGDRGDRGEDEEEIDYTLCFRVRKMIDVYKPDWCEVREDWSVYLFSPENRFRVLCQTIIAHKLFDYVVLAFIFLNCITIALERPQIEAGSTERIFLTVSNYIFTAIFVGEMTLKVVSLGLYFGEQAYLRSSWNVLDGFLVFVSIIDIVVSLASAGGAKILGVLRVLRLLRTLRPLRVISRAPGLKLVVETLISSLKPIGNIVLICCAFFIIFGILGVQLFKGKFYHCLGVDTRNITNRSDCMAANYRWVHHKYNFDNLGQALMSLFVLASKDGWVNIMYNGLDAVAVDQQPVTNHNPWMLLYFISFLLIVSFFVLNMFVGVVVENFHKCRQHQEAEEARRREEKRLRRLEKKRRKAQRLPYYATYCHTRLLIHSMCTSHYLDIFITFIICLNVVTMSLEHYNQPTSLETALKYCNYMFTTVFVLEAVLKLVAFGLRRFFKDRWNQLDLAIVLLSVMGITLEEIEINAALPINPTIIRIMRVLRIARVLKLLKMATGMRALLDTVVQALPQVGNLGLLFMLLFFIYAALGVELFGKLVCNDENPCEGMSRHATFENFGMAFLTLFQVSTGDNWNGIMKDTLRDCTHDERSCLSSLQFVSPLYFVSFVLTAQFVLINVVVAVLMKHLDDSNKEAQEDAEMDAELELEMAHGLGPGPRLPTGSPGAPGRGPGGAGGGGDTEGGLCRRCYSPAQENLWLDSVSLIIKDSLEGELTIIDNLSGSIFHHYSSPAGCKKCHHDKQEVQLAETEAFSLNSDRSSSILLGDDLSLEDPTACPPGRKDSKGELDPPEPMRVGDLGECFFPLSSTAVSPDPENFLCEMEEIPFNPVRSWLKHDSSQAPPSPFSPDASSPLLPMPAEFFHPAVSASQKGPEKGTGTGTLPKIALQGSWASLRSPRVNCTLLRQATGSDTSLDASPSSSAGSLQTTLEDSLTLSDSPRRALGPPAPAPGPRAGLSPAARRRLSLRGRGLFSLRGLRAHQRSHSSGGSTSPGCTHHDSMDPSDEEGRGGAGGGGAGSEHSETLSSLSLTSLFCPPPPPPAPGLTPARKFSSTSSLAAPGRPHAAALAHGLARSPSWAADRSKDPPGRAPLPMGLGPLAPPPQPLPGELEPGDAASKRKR
T1 sequence (O43497 whole entry): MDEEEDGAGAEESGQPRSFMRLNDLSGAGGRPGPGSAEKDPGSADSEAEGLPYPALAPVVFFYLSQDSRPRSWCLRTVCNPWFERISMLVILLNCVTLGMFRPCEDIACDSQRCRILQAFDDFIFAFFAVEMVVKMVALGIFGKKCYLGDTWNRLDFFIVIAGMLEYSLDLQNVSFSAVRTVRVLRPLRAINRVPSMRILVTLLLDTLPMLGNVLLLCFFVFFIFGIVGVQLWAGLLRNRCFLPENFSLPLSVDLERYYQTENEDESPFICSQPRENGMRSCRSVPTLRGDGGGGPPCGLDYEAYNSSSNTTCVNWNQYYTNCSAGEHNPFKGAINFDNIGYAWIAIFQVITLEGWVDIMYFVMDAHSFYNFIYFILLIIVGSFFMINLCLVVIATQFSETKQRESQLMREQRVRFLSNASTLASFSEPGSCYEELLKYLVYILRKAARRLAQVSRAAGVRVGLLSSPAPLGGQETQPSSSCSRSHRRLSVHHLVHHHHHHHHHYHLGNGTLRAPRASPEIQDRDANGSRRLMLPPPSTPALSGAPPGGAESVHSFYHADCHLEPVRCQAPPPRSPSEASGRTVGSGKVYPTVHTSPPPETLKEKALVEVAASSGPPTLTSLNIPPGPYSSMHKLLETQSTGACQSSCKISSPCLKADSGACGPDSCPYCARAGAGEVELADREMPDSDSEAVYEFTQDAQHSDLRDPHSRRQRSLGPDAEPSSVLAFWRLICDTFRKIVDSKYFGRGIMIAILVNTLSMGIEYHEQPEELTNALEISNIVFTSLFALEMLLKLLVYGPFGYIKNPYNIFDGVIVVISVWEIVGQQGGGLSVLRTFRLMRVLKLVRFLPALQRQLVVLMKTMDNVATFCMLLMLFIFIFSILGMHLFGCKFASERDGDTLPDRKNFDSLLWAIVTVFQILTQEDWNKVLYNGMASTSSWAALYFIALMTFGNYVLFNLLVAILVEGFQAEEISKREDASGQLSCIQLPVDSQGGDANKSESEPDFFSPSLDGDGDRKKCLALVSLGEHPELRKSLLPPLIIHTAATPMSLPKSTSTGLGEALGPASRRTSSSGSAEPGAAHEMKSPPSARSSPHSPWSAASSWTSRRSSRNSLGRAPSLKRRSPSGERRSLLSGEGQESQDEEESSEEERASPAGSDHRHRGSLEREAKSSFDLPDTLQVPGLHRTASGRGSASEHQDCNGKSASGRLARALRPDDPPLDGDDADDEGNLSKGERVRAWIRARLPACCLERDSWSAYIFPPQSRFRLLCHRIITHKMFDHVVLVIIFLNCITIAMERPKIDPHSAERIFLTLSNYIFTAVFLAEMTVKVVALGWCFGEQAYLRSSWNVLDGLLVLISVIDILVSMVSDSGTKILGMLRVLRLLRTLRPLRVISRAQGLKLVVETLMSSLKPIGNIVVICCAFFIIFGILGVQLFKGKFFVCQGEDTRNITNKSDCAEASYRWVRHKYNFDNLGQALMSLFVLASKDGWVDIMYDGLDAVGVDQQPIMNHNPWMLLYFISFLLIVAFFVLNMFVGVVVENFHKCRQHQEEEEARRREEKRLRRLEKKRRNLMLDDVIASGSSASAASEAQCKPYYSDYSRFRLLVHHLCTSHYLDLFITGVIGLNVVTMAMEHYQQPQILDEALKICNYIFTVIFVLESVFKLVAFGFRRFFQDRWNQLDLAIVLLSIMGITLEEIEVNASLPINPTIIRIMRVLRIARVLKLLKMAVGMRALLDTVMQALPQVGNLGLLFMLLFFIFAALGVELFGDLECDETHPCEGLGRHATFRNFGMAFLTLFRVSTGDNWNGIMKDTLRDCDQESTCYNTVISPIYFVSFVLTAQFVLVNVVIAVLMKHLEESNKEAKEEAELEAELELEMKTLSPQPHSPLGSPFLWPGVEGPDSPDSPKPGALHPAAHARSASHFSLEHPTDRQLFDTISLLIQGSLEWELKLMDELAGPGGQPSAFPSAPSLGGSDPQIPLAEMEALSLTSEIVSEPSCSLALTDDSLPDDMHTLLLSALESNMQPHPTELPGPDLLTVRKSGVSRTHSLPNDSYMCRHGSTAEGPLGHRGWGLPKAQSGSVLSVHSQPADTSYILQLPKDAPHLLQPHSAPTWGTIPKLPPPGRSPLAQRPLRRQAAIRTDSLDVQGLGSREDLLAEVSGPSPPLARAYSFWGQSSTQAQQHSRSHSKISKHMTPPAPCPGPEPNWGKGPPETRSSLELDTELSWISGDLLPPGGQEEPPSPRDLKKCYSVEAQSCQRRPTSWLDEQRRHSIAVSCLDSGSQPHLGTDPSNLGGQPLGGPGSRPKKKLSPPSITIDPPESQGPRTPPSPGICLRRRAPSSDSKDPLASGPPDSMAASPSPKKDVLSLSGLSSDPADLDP

IC50 (human CaV3.1; FLIPR window current assay, transiently transfected HEK293T, N = 3, mean ± SEM, read-out: IC50 CaV3.1 (LVA CaVs)): 58.6 ± 2.62 µM
Emax (human CaV3.1; FLIPR, n = 3, read-out: Emax, inhibition for CaV3.1): 75.5%
Emax ([1]; QPatch whole-cell, full inhibition, read-out: Emax value, inhibition of CaV3.3 whole-cell current): ≥ 95%
inhibition at 0.2 µM ([1]; QPatch, 200 nM compound, read-out: Inhibition of the CaV3.3 peak current): < 10%
IC50 ([1]; QPatch, 200 ms steps to Vmax (−10 mV) from holding −90 mV, n = 5, mean ± SEM, read-out: IC50 CaV3.3 whole-cell current): 15.8 ± 2.28 µM
Voltage-dependence of steady-state inactivation of CaV3.3, in words ([1]; QPatch, in the presence of compound): not significantly shifted
Compound: COC(=O)[C@H](Cc1c[nH]c2ccccc12)NC(=O)C(C)(c1c[nH]c2ccccc12)c1c[nH]c2ccccc12 [Compound 3, Methyl (2,2-di(1H-indol-3-yl)propanoyl)-L-tryptophanate]
